Assay: Pharmacokinetics after oral gavage in mice
Conditions: 10 mg/kg
Protocol: Concentrations of drugs and lipids were simultaneously quantified by a ACQUITY UPLC H-Class System (Waters, Milford, MA)^15. The mobile phase was composed of solvent A: 0.1% trifluoroacetic acid (TFA) in water and solvent B: 0.1% TFA in methanol. […] Concentrations of drugs and lipids were measured by integrating the peak area under the curve and compared to the standard curves. For plasma CQ quantitation, a Waters QDa mass spectrometry detector was used. Ionization was carried out at 250° C.
MLV-CQ drug formulation of the present invention or free CQ (dissolved in saline) was administered through oral gavage to mice at 10 mg CQ/kg (50 mg lipid/kg). […] Plasma was isolated by centrifugation at 4° C. for 10 min at 10,000 g. Forty-five L of plasma was mixed with 300 μL ethanol, vortexed for 30 s, placed on ice for 30 min, and centrifuged twice at 12,500 rpm for 5 min. The supernatant (280 μL) was collected, lyophilized, and reconstituted in 45 μL ethanol. Ten L of the sample was then injected into the UPLC to measure CQ concentration. Pharmacokinetics parameters and AUC were analyzed using PK solver^16 and GraphPad Prisim version 8.0 (GraphPad Software, San Diego, CA, USA), respectively.

CQ in plasma at 24 h: completely eliminated
Compound: CCN(CC)CCCC(C)Nc1ccnc2cc(Cl)ccc12 (stereo not shown) [CQ solution, chloroquine diphosphate]
